Consider 24 molecules from patent US20240343704A1, “HALO-SUBSTITUTED AMINO PYRIDINE COMPOUNDS AS INHIBITORS OF THE HAEMATOPOIETIC PROGENITOR KINASE 1 (HPK1)” (priority 2021, published 2024).

One experiment deals with Lck (h) (Homo sapiens, UniProt P06239). Kind of experiment: Lck Human  Kinase Enzymatic Radiometric Assay. It counts as biochemical. The essentials: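 Substrate 33P-incorporation measured by scintillation counting after spotting on P30 filtermat and phosphoric acid washes. Human Lck reacted 40 min at RT in 50 mM Tris pH 7.5 with 10 mM MgAcetate, [gamma-33P]-ATP, 250 uM Cdc2 peptide, 0.1 mM EGTA and 0.1 mM Na3VO4.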

For experiment [1], the target named is T1, Recombinant (1-346) HPK1 (h) (Homo sapiens, UniProt Q92918).
T1 construct: Recombinant (1-346) HPK1 (h) is incubated with 8 mM MOPS pH 7.0
T1 sequence (Q92918 1-346): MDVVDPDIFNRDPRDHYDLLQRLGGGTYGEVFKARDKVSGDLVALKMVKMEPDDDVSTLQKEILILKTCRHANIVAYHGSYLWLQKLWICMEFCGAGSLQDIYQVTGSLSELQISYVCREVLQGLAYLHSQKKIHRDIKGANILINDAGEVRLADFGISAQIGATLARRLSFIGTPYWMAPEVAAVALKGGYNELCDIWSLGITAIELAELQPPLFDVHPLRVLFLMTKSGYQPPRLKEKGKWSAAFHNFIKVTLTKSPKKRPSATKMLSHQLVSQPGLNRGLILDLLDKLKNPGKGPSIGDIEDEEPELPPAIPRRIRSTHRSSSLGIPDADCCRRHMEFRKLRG
Briefly: HPK1 Human STE Kinase Enzymatic Radiometric Assay. It counts as biochemical. The method, then:
A stock solution of 10 mM of test compound is prepared in DMSO. The compound plate was prepared by 3-fold and 9-point serial dilutions. […] The reaction is initiated by The addition of the Mg/ATP mix. After incubation for 40 minutes at RT, the reaction is stopped by the addition of phosphoric acid to a concentration of 0.5%.

Read-outs that look alike come from different tables or passages of the source. A value given as a limit tells only on which side of the number the result lay.

Lck (h), sequence (P06239 whole entry): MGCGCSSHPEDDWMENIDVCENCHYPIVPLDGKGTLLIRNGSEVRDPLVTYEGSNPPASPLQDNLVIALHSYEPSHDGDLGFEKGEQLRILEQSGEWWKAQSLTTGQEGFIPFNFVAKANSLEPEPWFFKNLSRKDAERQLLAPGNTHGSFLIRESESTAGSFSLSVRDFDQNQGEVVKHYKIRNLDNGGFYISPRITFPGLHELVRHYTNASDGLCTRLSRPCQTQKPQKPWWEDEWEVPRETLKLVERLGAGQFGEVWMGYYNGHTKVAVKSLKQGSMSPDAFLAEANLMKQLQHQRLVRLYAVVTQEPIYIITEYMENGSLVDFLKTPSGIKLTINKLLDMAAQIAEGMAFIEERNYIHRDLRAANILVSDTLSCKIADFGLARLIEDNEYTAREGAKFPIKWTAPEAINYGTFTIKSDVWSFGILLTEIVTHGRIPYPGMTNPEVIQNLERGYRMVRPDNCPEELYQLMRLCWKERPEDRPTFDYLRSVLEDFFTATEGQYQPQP

As usually defined, the IC50 is the concentration that gives 50% inhibition. For `CC(C)N1CCC(Oc2ccc(-c3cc(-c4ccc5c(c4)CCNC5=O)c(N)nc3F)cc2)CC1` [I-267, 6-(2-amino-6-fluoro-5-(4-((1-isopropylpiperidin-4-yl)oxy)phenyl)pyridin-3-yl)-3,4-dihydroisoquinolin-1(2H)-one], the IC50 was more than 1000 nM at Lck (h) (read-out: Lck IC50 nM Range*) and 0.1 to 10 nM in experiment [1] (read-out: HPK1 IC50 nM Range*).

As for `Cc1cc(-c2cc(-c3ccc4c(c3)CCNC4=O)c(N)nc2F)cc2c1CCNC2` [I-431, 6-(2-amino-6-fluoro-5-(5-methyl-1,2,3,4-tetrahydroisoquinolin-7-yl)pyridin-3-yl)-3,4-dihydroisoquinolin-1(2H)-one], the IC50 is more than 1000 nM on Lck (h) (read-out: Lck IC50 nM Range*) and 0.1 to 10 nM in experiment [1] (read-out: HPK1 IC50 nM Range*).

Regarding `Nc1nc(F)c(-c2ccc(OC3CCN(C(=O)CCCC[C@@H]4SC[C@@H]5NC(=O)N[C@@H]54)CC3)cc2)cc1-c1ccc2c(c1)CCNC2=O` [I-348, (3aS,4S,6aR)-4-(5-(4-(4-(6-amino-2-fluoro-5-(1-oxo-1,2,3,4-tetrahydroisoquinolin-6-yl)pyridin-3-yl)phenoxy)piperidin-1-yl)-5-oxopentyl)tetrahydro-1H-thieno[3,4-d]imidazol-2(3H)-one], the IC50 at Lck (h) (read-out: Lck IC50 nM Range*) is more than 1000 nM; in experiment [1] (read-out: HPK1 IC50 nM Range*), 0.1 to 10 nM.

As to `CC(C)N1CCN(c2ccc(-c3cc(-c4cc5cc[nH]c(=O)c5cc4F)c(N)nc3F)cc2)CC1` [I-373, 6-(2-amino-6-fluoro-5-(4-(4-isopropylpiperazin-1-yl)phenyl)pyridin-3-yl)-7-fluoroisoquinolin-1(2H)-one], the IC50 was 11 to 100 nM on Lck (h) (read-out: Lck IC50 nM Range*) and 0.1 to 10 nM in experiment [1] (read-out: HPK1 IC50 nM Range*).

On to `CN1CCC(c2ccc(-c3cc(-c4ccc5c(c4)CCNC5=O)c(N)nc3Cl)cc2)CC1` [I-231, 6-(2-amino-6-chloro-5-(4-(1-methylpiperidin-4-yl)phenyl)pyridin-3-yl)-3,4-dihydroisoquinolin-1(2H)-one], for which the IC50 on Lck (h) (read-out: Lck IC50 nM Range*) is more than 1000 nM; in experiment [1] (read-out: HPK1 IC50 nM Range*), 11 to 100 nM.

`CN1CCN(c2ccc(-c3cc(-c4cc5c(cc4F)C(=O)NCC5)c(N)nc3F)cc2C(F)(F)F)CC1` [I-249, 6-(2-amino-6-fluoro-5-(4-(4-methylpiperazin-1-yl)-3-(trifluoromethyl)phenyl)pyridin-3-yl)-7-fluoro-3,4-dihydroisoquinolin-1(2H)-one]: the results for the IC50 (at Lck (h) (read-out: Lck IC50 nM Range* (number printed instead of a class)); in experiment [1] (read-out: HPK1 IC50 nM Range*)) were 381 nM and 0.1 to 10 nM, respectively.

On to `Nc1nc(F)c(-c2ccc([C@@]34C[C@@H]3CN(CC(F)F)C4)cc2)cc1-c1ccc2c(c1)CCNC2=O` [I-72, 6-(2-amino-5-(4-((1R,5S)-3-(2,2-difluoroethyl)-3-azabicyclo[3.1.0]hexan-1-yl)phenyl)-6-fluoropyridin-3-yl)-3,4-dihydroisoquinolin-1(2H)-one], for which the results for the IC50 (on Lck (h) (read-out: Lck IC50 nM Range*); in experiment [1] (read-out: HPK1 IC50 nM Range*)) were more than 1000 nM and 11 to 100 nM, respectively.

In the case of `Cc1cc(-c2cc(-c3ccc4c(c3)CCNC4=O)c(N)nc2F)cc2c1CCN(CCCC(F)F)C2` [I-446, 6-(2-amino-5-(2-(4,4-difluorobutyl)-5-methyl-1,2,3,4-tetrahydroisoquinolin-7-yl)-6-fluoropyridin-3-yl)-3,4-dihydroisoquinolin-1(2H)-one], the IC50 at Lck (h) (read-out: Lck IC50 nM Range*) was more than 1000 nM; in experiment [1] (read-out: HPK1 IC50 nM Range*), 0.1 to 10 nM.

With `CC(C)(C)OC(=O)N1CCC2(CC1)OCc1cc(-c3cc(-c4ccc5c(c4)CCNC5=O)c(N)nc3F)ccc1O2` [I-173, tert-butyl 6-(6-amino-2-fluoro-5-(1-oxo-1,2,3,4-tetrahydroisoquinolin-6-yl)pyridin-3-yl)-4H-spiro[benzo[d][1,3]dioxine-2,4′-piperidine]-1′-carboxylate], the IC50 against Lck (h) is more than 1000 nM; in experiment [1] it was 11 to 100 nM.

In the case of `COc1cc(OC2CCN(C(C)=O)CC2)ccc1-c1cc(-c2ccc3c(c2)CCNC3=O)c(N)nc1F` [I-304, 6-(5-(4-((1-acetylpiperidin-4-yl)oxy)-2-methoxyphenyl)-2-amino-6-fluoropyridin-3-yl)-3,4-dihydroisoquinolin-1(2H)-one], the IC50 is more than 1000 nM on Lck (h) (read-out: Lck IC50 nM Range*) and 0.1 to 10 nM in experiment [1] (read-out: HPK1 IC50 nM Range*).

Turning to `CC(C)N1CC(Oc2ccc(-c3cc(-c4ccc5c(c4)CCNC5=O)c(N)nc3F)cc2)C1` [I-288, 6-(2-amino-6-fluoro-5-(4-((1-isopropylazetidin-3-yl)oxy)phenyl)pyridin-3-yl)-3,4-dihydroisoquinolin-1(2H)-one], the IC50 is more than 1000 nM on Lck (h) (read-out: Lck IC50 nM Range*) and 0.1 to 10 nM in experiment [1] (read-out: HPK1 IC50 nM Range*).

On to `Nc1nc(F)c(-c2ccc(C3CCCN(CC(F)(F)F)C3)cc2)cc1-c1ccc2c(c1)CCNC2=O` (stereo not drawn) [I-89, 6-(2-amino-6-fluoro-5-(4-(1-(2,2,2-trifluoroethyl)piperidin-3-yl)phenyl)pyridin-3-yl)-3,4-dihydroisoquinolin-1(2H)-one], for which the IC50 on Lck (h) (read-out: Lck IC50 nM Range*) was more than 1000 nM; in experiment [1] (read-out: HPK1 IC50 nM Range*), 11 to 100 nM.

With `Nc1nc(F)c(-c2ccc(N3CC[C@@H](F)C3)cc2)cc1-c1ccc2c(c1)CCNC2=O` [I-112, (R)-6-(2-amino-6-fluoro-5-(4-(3-fluoropyrrolidin-1-yl)phenyl)pyridin-3-yl)-3,4-dihydroisoquinolin-1(2H)-one], the IC50 is more than 1000 nM at Lck (h) (read-out: Lck IC50 nM Range*) and 11 to 100 nM in experiment [1] (read-out: HPK1 IC50 nM Range*).

`Nc1nc(F)c(-c2ccc(OCC3CC3)cc2)cc1-c1cc2c(cc1F)C(=O)NCC2` [I-316, 6-(2-amino-5-(4-(cyclopropylmethoxy)phenyl)-6-fluoropyridin-3-yl)-7-fluoro-3,4-dihydroisoquinolin-1(2H)-one]: the IC50 at Lck (h) (read-out: Lck IC50 nM Range*) was more than 1000 nM; in experiment [1] (read-out: HPK1 IC50 nM Range*) it was 11 to 100 nM.

As to `COCCN1CC=C(c2ccc(-c3cc(-c4ccc5c(c4)CCNC5=O)c(N)nc3F)cc2)CC1` [I-139, 6-(2-amino-6-fluoro-5-(4-(1-(2-methoxyethyl)-1,2,3,6-tetrahydropyridin-4-yl)phenyl)pyridin-3-yl)-3,4-dihydroisoquinolin-1(2H)-one], the values for the IC50 (on Lck (h) (read-out: Lck IC50 nM Range*); in experiment [1] (read-out: HPK1 IC50 nM Range*)) were more than 1000 nM and 0.1 to 10 nM, respectively.

In the case of `C[C@@H]1CN(c2ccc(-c3cc(-c4ccc5c(c4)CCNC5=O)c(N)nc3F)cc2)C[C@H](C)N1C` [I-96, 6-(2-amino-6-fluoro-5-(4-((3R,5S)-3,4,5-trimethylpiperazin-1-yl)phenyl)pyridin-3-yl)-3,4-dihydroisoquinolin-1(2H)-one], the IC50 at Lck (h) (read-out: Lck IC50 nM Range*) was more than 1000 nM; in experiment [1] (read-out: HPK1 IC50 nM Range*), 0.1 to 10 nM.

Turning to `CC(=O)N1CCC(Oc2ccc(-c3cc(-c4ccc5c(c4)CCNC5=O)c(N)nc3F)c3c2OCO3)CC1` [I-306, 6-(5-(7-((1-acetylpiperidin-4-yl)oxy)benzo[d][1,3]dioxol-4-yl)-2-amino-6-fluoropyridin-3-yl)-3,4-dihydroisoquinolin-1(2H)-one], the half-maximal inhibitory concentration (IC50) is more than 1000 nM on Lck (h) (read-out: Lck IC50 nM Range*) and 0.1 to 10 nM in experiment [1] (read-out: HPK1 IC50 nM Range*).

On to `Nc1nc(F)c(-c2ccc(CN3CCOCC3)cc2)cc1-c1ccc2c(c1)CCNC2=O` [I-257, 6-(2-amino-6-fluoro-5-(4-(morpholinomethyl)phenyl)pyridin-3-yl)-3,4-dihydroisoquinolin-1(2H)-one], for which the IC50 on Lck (h) (read-out: Lck IC50 nM Range*) was more than 1000 nM; in experiment [1] (read-out: HPK1 IC50 nM Range*), 11 to 100 nM.

In the case of `COCCN1CCC(O)(c2ccc(-c3cc(-c4ccc5c(c4)CCNC5=O)c(N)nc3F)cc2)CC1` [I-167, 6-(2-amino-6-fluoro-5-(4-(4-hydroxy-1-(2-methoxyethyl)piperidin-4-yl)phenyl)pyridin-3-yl)-3,4-dihydroisoquinolin-1(2H)-one], the IC50 at Lck (h) (read-out: Lck IC50 nM Range*) is more than 1000 nM; in experiment [1] (read-out: HPK1 IC50 nM Range*) it was 0.1 to 10 nM.

Consider `CCN1CCC(c2ccc(-c3cc(-c4ccc5c(c4)CCNC5=O)c(N)nc3F)cc2)CC1` [I-53, 6-(2-amino-5-(4-(1-ethylpiperidin-4-yl)phenyl)-6-fluoropyridin-3-yl)-3,4-dihydroisoquinolin-1(2H)-one], for which the results for the IC50 (at Lck (h) (read-out: Lck IC50 nM Range*); in experiment [1] (read-out: HPK1 IC50 nM Range*)) were more than 1000 nM and 0.1 to 10 nM, respectively.

In the case of `CC(C)N1CCN(c2ccc(-c3cc(-c4cc5c(cc4F)C(=O)NCC5)c(N)nc3Cl)cc2)CC1` [I-209, 6-(2-amino-6-chloro-5-(4-(4-isopropylpiperazin-1-yl)phenyl)pyridin-3-yl)-7-fluoro-3,4-dihydroisoquinolin-1(2H)-one], the values for the IC50 (on Lck (h) (read-out: Lck IC50 nM Range*); in experiment [1] (read-out: HPK1 IC50 nM Range*)) were more than 1000 nM and 0.1 to 10 nM, respectively.

For the molecule `N#Cc1cc(-c2cc(-c3ccc4c(c3)CCNC4=O)c(N)nc2F)ccc1OC1CCNCC1` [I-184, 5-(6-amino-2-fluoro-5-(1-oxo-1,2,3,4-tetrahydroisoquinolin-6-yl)pyridin-3-yl)-2-(piperidin-4-yloxy)benzonitrile], the results for the IC50 (at Lck (h) (read-out: Lck IC50 nM Range*); in experiment [1] (read-out: HPK1 IC50 nM Range*)) were more than 1000 nM and 11 to 100 nM, respectively.

For `COCCN1C[C@H]2C[C@@]2(c2ccc(-c3cc(-c4ccc5c(c4)CCNC5=O)c(N)nc3F)cc2)C1` [I-140, 6-(2-amino-6-fluoro-5-(4-((1R,5S)-3-(2-methoxyethyl)-3-azabicyclo[3.1.0]hexan-1-yl)phenyl)pyridin-3-yl)-3,4-dihydroisoquinolin-1(2H)-one], the results for the IC50 (on Lck (h) (read-out: Lck IC50 nM Range*); in experiment [1] (read-out: HPK1 IC50 nM Range*)) were more than 1000 nM and 0.1 to 10 nM, respectively.

With `CC(C)[C@@H]1CN(c2ccc(-c3cc(-c4ccc5c(c4)CCNC5=O)c(N)nc3F)c(F)c2)CCO1` [I-11, (R)-6-(2-amino-6-fluoro-5-(2-fluoro-4-(2-isopropylmorpholino)phenyl)pyridin-3-yl)-3,4-dihydroisoquinolin-1(2H)-one], the IC50 on Lck (h) (read-out: Lck IC50 nM Range*) was more than 1000 nM; in experiment [1] (read-out: HPK1 IC50 nM Range*) it was 0.1 to 10 nM.
